This note sets out measurements from US20180370912A1, “COMPOUNDS AND METHODS FOR TREATING DISEASES MEDIATED BY PROTEIN DISULFIDE ISOMERASE” (Beth Israel Deaconess Medical Center, Inc., priority 2017, published 2018).

SMILES strings stand for the structures.

Test [1] addresses T1, ERp57 (Homo sapiens, UniProt P30101).
T1 construct: FLAG; made in house; host or cells: Escherichia coli Origami B (DE3), pET-15b
T1 sequence (P30101 25-505): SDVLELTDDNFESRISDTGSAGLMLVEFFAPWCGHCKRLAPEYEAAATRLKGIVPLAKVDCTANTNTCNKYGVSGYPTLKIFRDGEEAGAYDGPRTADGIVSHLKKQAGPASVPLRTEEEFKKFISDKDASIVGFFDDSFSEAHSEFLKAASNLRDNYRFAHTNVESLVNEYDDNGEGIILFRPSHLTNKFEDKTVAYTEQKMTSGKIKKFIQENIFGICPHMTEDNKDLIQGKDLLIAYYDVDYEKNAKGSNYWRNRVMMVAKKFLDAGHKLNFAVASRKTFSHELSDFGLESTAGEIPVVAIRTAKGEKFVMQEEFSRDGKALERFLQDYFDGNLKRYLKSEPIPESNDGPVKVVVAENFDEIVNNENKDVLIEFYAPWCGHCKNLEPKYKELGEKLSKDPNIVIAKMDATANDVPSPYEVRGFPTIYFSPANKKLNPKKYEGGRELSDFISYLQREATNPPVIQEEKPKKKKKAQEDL
Nature of the test: Maleimide-polyethylene glycol-2-biotin (MPB) binding. The note with it: 150 μM inhibitor, FIG. 2c, FIG. 8. As to the method: (§1) Maleimide-Polyethanol glycol-2-Biotin (MPB) binding experiments were performed in a reaction volume of 37.5 μL with 5 μM of thiol isomerase or bovine serum albumin (BSA) in Tris-buffered saline (TBS), in the presence and absence of 1 mM of N-ethylmaleimide (NEM) or bacitracin, and 150 μM of the mentioned other inhibitors. The reaction mixture was incubated at 37° C. for 1 hour. Subsequently, the reaction mixtures were incubated with 25 μM of MPB. The labeling was performed for 20 minutes at 25° C. A total of 12.5 μL of 4× Laemmli Sample Buffer with 5% β-mercaptoethanol was added to each of the samples, followed by heating at 95° C. for 10 minutes. From each sample, 10 μL was loaded on a 12% SDS-PAGE gel, followed by transfer on a nitrocellulose membrane. After blocking the membrane with TBS-T containing 5% BSA for one hour, the membrane was incubated with a 1:2000 dilution of Cy5-tagged Streptavidin for an hour in the dark. Detection of the immunoblots was performed using ImageQuant LAS 4000 and analysis was performed using ImageQuant TL software.

For test [2], the target named is T2, ERp5 (Homo sapiens, UniProt Q15084).
T2 construct: recombinant His-tagged full-length ERp5, ERp72 and PDI domain fragments; His; made in house; host or cells: Escherichia coli Origami B (DE3), pET-15b
T2 sequence (Q15084 20-440): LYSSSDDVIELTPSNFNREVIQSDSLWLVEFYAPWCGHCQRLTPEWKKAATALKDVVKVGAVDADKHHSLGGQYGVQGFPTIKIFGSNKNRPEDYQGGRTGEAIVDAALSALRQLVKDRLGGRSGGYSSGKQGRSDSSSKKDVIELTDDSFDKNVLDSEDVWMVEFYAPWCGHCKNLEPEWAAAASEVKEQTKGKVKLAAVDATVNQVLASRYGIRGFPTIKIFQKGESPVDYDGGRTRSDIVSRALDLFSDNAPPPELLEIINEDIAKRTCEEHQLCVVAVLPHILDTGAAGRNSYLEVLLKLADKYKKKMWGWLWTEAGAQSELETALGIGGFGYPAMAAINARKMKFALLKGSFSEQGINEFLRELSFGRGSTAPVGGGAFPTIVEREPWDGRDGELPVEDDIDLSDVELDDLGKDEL
The description is as above. The note with it: 150 μM inhibitor, FIG. 2c, FIG. 8. As to the method: as §1

The target in test [3] is T3, abb′x fragment of PDI (Homo sapiens, UniProt P07237).
T3 construct: 1.25 μg of the abb′x fragment; His; made in house; host or cells: Escherichia coli Origami B (DE3), pET-15b
T3 sequence (P07237 18-368 limits assumed): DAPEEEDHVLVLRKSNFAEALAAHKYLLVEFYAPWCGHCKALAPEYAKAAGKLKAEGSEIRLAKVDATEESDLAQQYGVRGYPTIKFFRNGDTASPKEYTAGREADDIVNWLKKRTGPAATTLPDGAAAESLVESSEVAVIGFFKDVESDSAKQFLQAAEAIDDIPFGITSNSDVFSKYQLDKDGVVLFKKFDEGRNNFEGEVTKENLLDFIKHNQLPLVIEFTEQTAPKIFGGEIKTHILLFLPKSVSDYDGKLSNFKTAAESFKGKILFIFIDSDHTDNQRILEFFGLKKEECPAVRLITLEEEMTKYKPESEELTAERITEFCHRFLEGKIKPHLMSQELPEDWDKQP
As to the kind of experiment: Proteolysis assay with proteinase K. As to the method: Proteinase K (2 μg/mL) was incubated with 1.25 μg of the abb′x fragment in 50 mM Tris-HCl containing 5 mM CaCl2 and 10 mM DTT. Reactions were aborted with the addition of 0.5 mM phenylmethanesulfonyl fluoride (PMSF). Subsequently, samples were subjected to Laemmli Sample buffer with 5% β-mercaptoethanol and heated at 95° C. for 10 minutes. Each sample was loaded on a 12% SDS-PAGE gel, followed by silver staining using the Pierce Silver Stain Kit (Thermo Scientific).

`C#CC(=O)N(c1ccc(OC)cc1OC)C(C(=O)NCC(=O)OCC)c1cccs1` (stereo not shown) [PACMA-31, N-(2,4-Dimethoxyphenyl)-N-(1-oxo-2-propyn-1-yl)-2-(2-thienyl)glycyl-glycine ethyl ester, reference compound]: the “reaction of MPB with the catalytic cysteines of ERp57” value in test [1] is listed as “interfered with the reaction of maleimide-polyethylene glycol-2-biotin (MPB)”. For the same molecule, the “reaction of MPB with the catalytic cysteines of ERp5” value in test [2] is “interfered with the reaction of maleimide-polyethylene glycol-2-biotin (MPB)”.

Regarding `CCOC(=O)c1c(CNCCN(CC)CC)n(-c2ccccc2)c2cc(Br)c(O)cc12` [bepristat 2a], the “proteinase K activity (cleavage of ERp5)” value in test [3] (control, not shown) is recorded as “did not interfere with proteinase K activity”. Moreover, the “cleavage of abb′x by proteinase K” value in test [3] (presence versus absence of compound, FIG. 5b) is given as “occurred more rapidly”.
